From US5635510A, “Substituted pyrrolidin-3-yl-alkyl-piperidines” (Merrell Pharmaceuticals Inc., priority 1994, dated 1997)
Counter-ions that a name gives are not always drawn.

What was measured:
NK1 and NK2 receptors = assay: Modulation of respiratory effects produced by capsaicin aerosol in conscious guinea pigs; assay type: in vivo, guinea pig
Experimental: (§1) In vivo experiments were performed using male Duncan Hartley guinea pigs (250-350g). Changes in conscious breathing patterns were monitored in four animals simultaneously using modified whole body plethysmography consisting of four small plexiglass boxes each connected to a reference box via Validyne DP 45-16 differential pressure transducers. The 4 boxes were equipped with an air supply line (also used for aerosol delivery) and an exhaust air line. Supply and exhaust lines were of the same length and narrow bore and arose from a common supply chamber and vented to a common exhaust chamber. This system was used to ensure that fluctuations in supply air and atmospheric pressure would remain in phase and be eliminated from the net signal by the differential pressure transducers. The analog pressure signals were digitalized via a Data Translation DT2821 A to D board. Data were collected at a rate of 100 samples/second/animal. Each cycle of pressure change was analyzed using the following parameters: rising and falling slope determined between minimum and maximum pressures, the ratio of rising over falling slope, and the magnitude of the change between initial trough pressure and peak cycle pressure. Using these values (and observing the animals) the pressure cycles were characterized into normal breaths, forced exhalations (apparent by abdominal heaving), significant respiratory events (SREs; usually coughs, less often sneezes or gasps which were characterized by transient, extremely large pressure increases which were distinguishable from noise) and movement/noise with a PCAT 286 running a System V UNIX operating system. Dyspnea was defined as a significant, sustained increase in plethysmograph pressure which was associated with an observable shift to labored breathing in the animal.
(§2) During the course of a typical experiment in which airway responsiveness to various bronchoconstricting agents was examined, aerosols were delivered for 19 min (0.33 ml/min) using a DeVilbiss Ultraneb 99 ultrasonic nebulizer and animals monitored during this time. Prior to nebulization, 1 min of resting breathing was collected to establish a baseline pressure. […] The vehicle for nebulization of all bronchoconstrictive agents was phosphate buffered saline (pH 7.4) which elicited no respiratory effects itself. Putative tachykinin antagonists were administered either (i.v.) 20 min prior to onset of aerosol exposure or orally 1 hour prior to onset (to guinea pigs after an overnight fast).
Capsaicin aerosol is known to promote release of the tachykinins SP and NKA from sensory nerves in the airways of guinea pigs which may then act upon NK1 and NK2 receptors, respectively to elicit respiratory effects.

NK1 receptor [1] = biological target: T1, NK1 receptor (Homo sapiens, UniProt P25103); assay: Antagonism of NK1 receptor mediated (SP-induced) phosphatidylinositol turnover in UC11 cells; assay type: cell-based; settings: for relative antagonism of NK1 and NK2 receptors (in words): PI turnover, UC11 (NK1) versus SKLKB82#3 (NK2) cells
T1 construct: antagonizes both NK1 (on UC11 cells); endogenous in cells; host or cells: UC11 cells
Experimental: (§3) Tachykinin-mediated inositol phosphate accumulation was measured in UC11 or SKLKB82#3 cells in the presence and absence of NK1 or NK2 receptor antagonists, respectively. Tissues were incubated in Krebs-Henseleit buffer at 37° C. with 95% O2 -5% CO2 gassing. Tissues were then incubated with fresh buffer containing 100 μCi of myo-[2-3H(N)] inositol at 37° C. for 60 min with gentle gassing. After washing twice in 5 ml room temperature buffer containing 10 mM LiCl, tissues were incubated for 30 min at room temperature with a buffer change at 15 min. Buffer was removed and Krebs-Henseleit buffer (containing 40 μg/ml bacitracin, 4 μg/ml each of leupeptin and chymostatin, 0.1% bovine serum albumin and 10 mM each of thiorphan and LiCl) added. After 15 min, SP was added to UC11 cells or NKA to SKLKB82#3 cells at various concentrations to start the reaction. After incubation for 60 min at room temperature the reaction was terminated by addition of 930 μl chloroform: methanol (1:2 by volume) to each tube, followed by 310 μl chloroform and 310 μl doubly distilled water. Samples were vortexed, centrifuged, and 0.9 ml of the aqueous (top) phase removed and added to 2 ml ddH2 O. The mixture was vortexed and loaded onto a 50% Bio-Rad AG 1-X8 (formate form, 100-200 mesh) exchange column (Bio-Rad Laboratories, Hercules, Calif.). The columns were washed, in order, with: 1) 10 ml doubly distilled water, 2) 5 ml of 5 mM disodium tetraborate/60 mM sodium formate, and 3) 5 ml of 1M ammonium formate/0.1M formic acid. The third elution was collected and 1 ml counted in 7 ml scintillation fluid. A 50 μl aliquot of the organic (bottom) phase was removed, dried in a scintillation vial and counted in 7 ml scintillation fluid.
(§4) The ratio of DPM in the aqueous phase aliquot (total inositol phosphates) to the DPM in the 50 μl organic phase aliquot (total [^3 H]inositol incorporated) was calculated for each sample. Data are expressed as a percent of agonist-induced accumulation of [^3 H]-inositol phosphates over basal levels. The ratios in the presence of test compound and/or standards were compared to the ratios for control samples (i.e. no stimulating agonist). Dose-response graphs were constructed and the abilities of the test compounds to inhibit tachykinin-induced phosphatidyinositol turnover determined with the aid of a computer program. […] Data is expressed as percent stimulation of total inositol phosphate accumulation over basal levels and normalized to the maximum response produced by SP. […] Schild analysis is performed using dose response curves (such as those presented in FIGS. 1a and 1b) to obtain a value indicative of the strength of a competitive antagonist and is expressed as the pA2, which is the negative logarithm of the molar concentration of antagonist which reduces the effect of a dose of agonist to one-half of that expected at the dose of agonist.

NK1 receptor [2] = biological target: T2, NK1 receptor (Cavia porcellus, UniProt P30547); assay: Antagonism of SP-induced plasma protein extravasation in guinea pig trachea; assay type: in vivo; settings: guinea pig, iv; i.v. 2 min prior to SP; mean (95% confidence limits); at least 3 doses, at least 4 animals per dose; read-out: ED50 for inhibition of SP-induced plasma protein extravasation
T2 construct: evaluated in guinea pig lungs; tissue Keystone Biologicals, Cleveland, OH; host or cells: guinea pig lung
Experimental: SP-induced protein leakage through postcapillary venules was assessed by measuring Evans Blue dye accumulation in guinea pig trachea. Animals were anesthetized with pentobarbital then injected with Evans Blue dye (20 mg/kg, i.v., prepared in 0.9% NaCl solution). One minute after dye administration, the antagonist was administered (i.v.) followed by SP (0.3 nmole/kg, i.v.) and, after 5 min, excess dye removed from the circulation by transcardiac perfusion with 50 ml 0.9% NaCl solution. The trachea and primary bronchi were removed, blotted dry and weighed. Dye quantitation was performed spectrophotometrically ([…]) after extracting tissues in formamide for 24 hr at 50° C.. Values were subtracted from background (dye only, no agonist). ED50 (dose of compound which inhibits SP-induced plasma protein extravasation by 50%) was calculated from linear regression analysis.

NK2 receptor [3] = biological target: T3, NK2 receptor (Bos taurus, UniProt P05363); assay: Antagonism of NK2 receptor mediated (NKA-induced) phosphatidylinositol turnover in SKLKB82#3 cells; assay type: cell-based; settings: SKLKB82#3 cells, NKA; Schild slope, mean (95% confidence limits)
T3 construct: expressed in transfected cells; host or cells: SKLKB82#3 cells
T3 sequence (P05363 1-384): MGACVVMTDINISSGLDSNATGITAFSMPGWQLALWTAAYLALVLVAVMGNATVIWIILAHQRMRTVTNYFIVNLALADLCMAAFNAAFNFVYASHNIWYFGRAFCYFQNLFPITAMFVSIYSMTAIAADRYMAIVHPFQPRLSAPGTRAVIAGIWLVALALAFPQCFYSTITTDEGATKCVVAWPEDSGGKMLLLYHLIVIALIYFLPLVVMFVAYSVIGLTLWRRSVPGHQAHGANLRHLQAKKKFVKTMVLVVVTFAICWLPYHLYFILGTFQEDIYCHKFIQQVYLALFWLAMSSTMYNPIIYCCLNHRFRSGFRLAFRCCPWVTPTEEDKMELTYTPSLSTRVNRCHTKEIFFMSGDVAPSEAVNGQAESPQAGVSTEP
Experimental: as §3
as §4, with “The ratios in the presence of test compound and/or standards were compared to the ratios for control samples (i.e. no stimulating agonist).” left out

NK2 receptor [4] = assay: Antagonism of NKA-induced respiratory effects in conscious guinea pigs; assay type: in vivo, guinea pig; settings: for dyspnea incidence: i.v. 20 min prior to NKA aerosol (0.05%)
Experimental: as §1, §2

T1 sequence (P25103 whole entry): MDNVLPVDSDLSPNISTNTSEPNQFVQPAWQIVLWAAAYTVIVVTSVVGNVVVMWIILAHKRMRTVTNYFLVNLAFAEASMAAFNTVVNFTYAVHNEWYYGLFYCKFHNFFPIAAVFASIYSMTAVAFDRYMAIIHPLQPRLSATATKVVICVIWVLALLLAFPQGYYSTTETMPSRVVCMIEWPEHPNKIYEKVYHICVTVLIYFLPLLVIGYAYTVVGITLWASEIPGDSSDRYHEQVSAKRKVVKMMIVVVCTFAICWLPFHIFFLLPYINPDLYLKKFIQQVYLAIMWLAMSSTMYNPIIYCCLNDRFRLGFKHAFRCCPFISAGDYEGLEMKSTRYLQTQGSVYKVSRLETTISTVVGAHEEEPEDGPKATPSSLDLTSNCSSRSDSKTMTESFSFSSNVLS
T2 sequence (P30547 whole entry): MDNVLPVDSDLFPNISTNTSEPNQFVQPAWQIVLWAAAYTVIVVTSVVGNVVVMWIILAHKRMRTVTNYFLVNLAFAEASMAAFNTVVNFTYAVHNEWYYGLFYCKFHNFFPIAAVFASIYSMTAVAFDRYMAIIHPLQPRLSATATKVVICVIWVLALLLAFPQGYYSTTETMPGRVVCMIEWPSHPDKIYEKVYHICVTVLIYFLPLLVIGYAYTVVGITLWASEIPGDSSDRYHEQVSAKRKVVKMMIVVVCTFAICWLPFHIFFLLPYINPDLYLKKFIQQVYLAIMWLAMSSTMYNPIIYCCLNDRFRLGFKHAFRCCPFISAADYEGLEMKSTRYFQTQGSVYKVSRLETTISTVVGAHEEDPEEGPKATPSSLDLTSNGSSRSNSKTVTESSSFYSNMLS

SMILES | dyspnea incidence (NK1 and NK2 receptors; 10 mg/kg, i.v. 20 min prior to capsaicin aerosol (0.001%)) [%] | dyspnea incidence (NK1 and NK2 receptors; 25 mg/kg, oral gavage 1 hr prior to capsaicin aerosol (0.001%)) [%] | dyspnea incidence (NK1 and NK2 receptors; 50 mg/kg, oral gavage 1 hr prior to capsaicin aerosol (0.001%)) [%] | dyspnea incidence (NK1 and NK2 receptors; 100 mg/kg, oral gavage 1 hr prior to capsaicin aerosol (0.001%)) [%] | effect on capsaicin-induced respiratory effects (in words) (NK1 and NK2 receptors; intravenous) | effect on capsaicin-induced respiratory effects (in words) (NK1 and NK2 receptors; oral) | relative antagonism of NK1 and NK2 receptors (in words) (NK1 receptor [1]) | NK-1 receptor slope (NK1 receptor [1]; UC11 cells, SP, Schild slope, mean (95% confidence limits)) | ED50 (NK1 receptor [2]) [mg/kg] | NK-2 receptor slope (NK2 receptor [3]) | dyspnea incidence (NK2 receptor [4]; 5 mg/kg) [%] | dyspnea incidence (NK2 receptor [4]; 10 mg/kg) [%] | effect on NKA-induced respiratory effects (in words) (NK2 receptor [4]; NKA aerosol, dose dependent)
COc1cc(C(=O)N2CCC(CCN3CCC(C(N)=O)(c4ccccc4)CC3)(c3ccc(Cl)c(Cl)c3)C2)cc(OC)c1OC (racemic) [Example 3A, 1-[2-[3-(3,4-dichloro-phenyl)-1-(3,4,5-trimethoxy-benzoyl)-pyrrolidin-3-yl]-ethyl]-4-phenyl-piperidine-4-carboxylic acid amide hydrochloride] | 89 | 80 | 70 | 50 | attenuate capsaicin-induced respiratory effects | antagonize the effects of capsaicin aerosol when administered orally | antagonized both NK1 and NK2 receptors by nearly equivalent amounts | 0.90 | 0.17 | 0.73 | – | – | –
COc1cccc(OC)c1C(=O)N1CCC(CCN2CCC(C(N)=O)(c3ccccc3)CC2)(c2ccc(Cl)c(Cl)c2)C1 (stereo not drawn) [Example 5, 1-[2-[3-(3,4-dichloro-phenyl)-1-(2,6-dimethoxy-benzoyl)-pyrrolidin-3-yl]-ethyl]-4-phenyl-piperidine-4-carboxylic acid amide] | – | – | – | – | – | antagonize the effects of capsaicin aerosol when administered orally | – | – | – | – | – | – | –
COc1cccc(OC)c1C(=O)N1CCC(CCN2CCC(C(N)=O)(c3ccccc3)CC2)(c2ccc(Cl)c(Cl)c2)C1 (stereo not drawn) [Example 5A, 1-[2-[3-(3,4-dichloro-phenyl)-1-[2,6-dimethoxy-benzoyl)-pyrrolidin-3-yl]-ethyl]-4-phenylpiperidine-4-carboxylic acid amide hydrochloride] | – | – | – | – | – | – | antagonized both NK1 and NK2 receptors by nearly equivalent amounts | – | – | – | 60 | 54 | reduced the effects of NKA aerosol
